Common to all, as to design: species or system Homo sapiens
A short description of test [1]: Compound required to inhibit binding of CD4 to gp120 at 100 uM concentration; No inhibition.
Test [2] can be described thus: Compound required to inhibit binding of CD4 to gp120 in the absence of bovine serum albumin(BSA).
Test [3] is described as follows: Compound required to inhibit binding of CD4 to gp120 in the presence of bovine serum albumin(BSA).

pIC50: −log10 of the molar value.

One may read the pIC50 as −log10 of the IC50, conventionally taken in molar units.

As for `CN[C@H](CC(C)C)C(=O)N[C@H]1C(=O)N[C@@H](CC(N)=O)C(=O)N[C@H]2C(=O)N[C@H]3C(=O)N[C@H](C(=O)N[C@H](C(=O)O)c4cc(O)cc(O)c4-c4cc3ccc4O)[C@H](O)c3ccc(c(Cl)c3)Oc3cc2cc(c3O[C@@H]2O[C@H](CO)[C@@H](O)[C@H](O)[C@H]2O[C@H]2C[C@](C)(N)[C@H](O)[C@H](C)O2)Oc2ccc(cc2Cl)[C@H]1O` [VANCOMYCIN], in test [1], the IC50 result is on record as “No inhibition”. As for `CN1C(=O)[C@@H](c2cc(Cl)c(O)c(Cl)c2)NC(=O)[C@@H]2NC(=O)[C@@H](c3cc(Cl)c(O)c(Cl)c3)NC(=O)[C@H](NC(=O)C(=O)c3cc(Cl)c(O)c(Cl)c3)Cc3c[nH]c4c(cccc34)-c3cc2cc(c3O)Oc2ccc(cc2)C[C@H]1C(=O)N[C@@H](C(=O)O)c1ccc(O)cc1` [CHLOROPEPTIN], the negative-log IC50 (pIC50) in test [2] was 4.49; in test [3] it was 5.70.

Values taken from ChEMBL document CHEMBL1147491, “Complestatin synthetic studies; the effect of the amino acid configuration on peptide backbone conformation in the common western BCD macrocycle” (Bioorg Med Chem Lett, 2004).
